Here are results for 24 molecules from patent publication US7981912B2, “Indole acetic acids exhibiting CRTH2 receptor antagonism and uses thereof” (Wyeth LLC, priority 2004, dated 2011).

Some results are limits rather than exact numbers.

For the experiment, the target named is T1, human CRTH2 (Homo sapiens, UniProt Q9Y5Y4).
T1 sequence (Q9Y5Y4 1-395): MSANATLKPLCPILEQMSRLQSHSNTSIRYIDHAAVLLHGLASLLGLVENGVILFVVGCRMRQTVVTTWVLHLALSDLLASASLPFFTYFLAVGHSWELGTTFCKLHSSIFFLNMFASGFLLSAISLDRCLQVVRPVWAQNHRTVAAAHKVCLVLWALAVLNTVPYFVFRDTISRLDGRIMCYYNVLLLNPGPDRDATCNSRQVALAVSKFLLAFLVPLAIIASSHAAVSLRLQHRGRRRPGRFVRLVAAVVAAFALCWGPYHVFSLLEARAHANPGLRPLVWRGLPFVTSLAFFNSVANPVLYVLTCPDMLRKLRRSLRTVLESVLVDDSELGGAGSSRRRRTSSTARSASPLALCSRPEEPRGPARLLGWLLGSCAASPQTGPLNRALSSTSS
Nature of the experiment: CRTH-2 binding assay (scintillation proximity assay, inhibition of 3H-PGD2 binding). Also on record: expressed in transfected cells; host or cells: HEK 293EBNA-hCRTH2 (membrane preparation). To be noted: inhibition of 3H-PGD2 (3.6 nM) binding to HEK 293EBNA-hCRTH2 membranes; Ki calculated from IC50. The protocol:
A CRTH2 binding assay was developed to measure the ability of compounds to inhibit the binding of PGD2 to human CRTH2 using a scintillation proximity assay.
Membranes containing hCRTH2 receptors were prepared from HEK 293EBNA-hCRTH2 cells (a HEK 293EBNA cell line stably expressing human CRTH2). The cells were grown to confluency, harvested and washed with PBS. The cells were resuspended in 10 mM Hepes pH 7.4, 1 mM EDTA and protease inhibitors and incubated for 30 min on ice. The cells were homogenized and centrifuged for 10 min at 1000×g. The supernate was centrifuged for 30 min at 100,000×g and the membrane pellet was then resusupended in 10 mM Hepes pH 7.4 and 1 mM EDTA. The protein concentration of the membrane preparation was determined by Bradford assay (Bio-Rad).
The ability of compounds to inhibit the interaction of PGD2 to human CRTH2 was determined at seven compound concentrations. Compounds were serially diluted in DMSO then diluted into CRTH2 buffer without glycerol (10 mM Hepes pH 7.4, 1 mM EDTA, 10 mM MnCl2) to six times the final desired concentration. 20 μL of the diluted compounds were transferred into non-surface binding 96 well plates (Corning). Each concentration was done in triplicate. In addition to test compounds, each plate contained 12 control wells. Six of these wells contained 20 μL of CRTH2 buffer without glycerol. These wells were used to measure total binding. Six wells contained 20 μL of CRTH2 buffer without glycerol plus 1.5 mM indomethacin. These wells were used to measure non-specific binding. Next, HEK 293EBNA-hCRTH2 membranes were resuspended in CRTH2 buffer with glycerol (10 mM Hepes pH 7.4, 1 mM EDTA, 10 mM MnCl2, 25% glycerol) so that the final concentration was approximately 20 μg protein/100 μL. Polylysine coated yttrium silicate SPA beads (Amershamn) were added to the membrane mix to a concentration of 0.4 mg/100 μL and finally ^3H-PGD2 was added to the membrane/SPA bead mix to 3.6 nM. 100 μL of the membrane/SPA bead/^3H-PGD2 mix was added to each well of the non-surface binding plates containing the diluted compound plus controls. The plates were incubated for 2 hours at room temperature with shaking and then the plates were counted on a Microbeta scintillation counter (Perkin Elmer) for 1 min per well.
IC50 values were determined from the experimental results by nonlinear regression using Prism 4.0 software. The IC50 values were then used in conjunction with the […] for hCRTH2 and the ^3H-PGD2 concentration used in the experiment to calculate the Ki for each compound.
As usually defined, the Ki is a dissociation constant, usually derived from enzyme kinetics or from competition with a known ligand. In the case of `CCN1N=C(c2c(C)n(CC(=O)O)c3ccc(F)cc23)c2ccccc2S1(=O)=O` [Example 91, [3-(2-Ethyl-1,1-dioxo-1,2-dihydro-1λ^6-benzo[e][1,2,3]thiadiazin-4-yl)-5-fluoro-2-methyl-indol-1-yl]-acetic acid], the inhibition constant (Ki) is < 100 nM.

Consider `CCOC(=O)CN1C(c2c(C)n(CC(=O)O)c3ccc(Cl)cc23)c2ccccc2S1(=O)=O` (stereo not drawn) [Example 59, [5-Chloro-3-(2-ethoxycarbonylmethyl-1,1-dioxo-2,3-dihydro-1H-1 λ^6-benzo[d]isothiazol-3-yl)-2-methyl-indol-1-yl]-acetic acid], for which the inhibition constant Ki is < 100 nM.

On to `O=C(O)Cn1cc(C2NS(=O)(=O)c3ccccc32)c2cc(Br)ccc21` (stereo not drawn) [Example 8, [5-Bromo-3-(1,1-dioxo-2,3-dihydro-1H-1λ^6-benzo[d]isothiazol-3-yl)-indol-1-yl]-acetic acid], for which the Ki is < 10000 nM.

`Cc1c(C2c3ccccc3S(=O)(=O)N2CCO)c2ccccc2n1CC(=O)O` (stereo not drawn) [Example 38, {3-[2-(2-Hydroxy-ethyl)-1,1-dioxo-2,3-dihydro-1H-1λ^6-benzo[d]isothiazol-3-yl]-2-methyl-indol-1-yl}-acetic acid]: the Ki is < 10000 nM.

Turning to `O=C(O)Cn1cc(C2=NN(Cc3ccccc3)S(=O)(=O)c3ccccc32)c2ccccc21` [Example 17, [3-(2-Benzyl-1,1-dioxo-1,2-dihydro-1λ6-benzo[e][1,2,3]thiadiazin-4-yl)-indol-1-yl]-acetic acid], the inhibition constant (Ki) was < 1000 nM.

Turning to `Cc1ccc2c(c1)c(C1c3ccccc3S(=O)(=O)N1CCCOCc1ccccc1)cn2CC(=O)O` (stereo not drawn) [Example 50, {3-[2-(3-Benzyloxy-propyl)-1,1-dioxo-2,3-dihydro-1H-1λ^6-benzo[d]isothiazol-3-yl]-5-methyl-indol-1-yl}-acetic acid], the Ki was < 10000 nM.

In the case of `Cc1c(C2c3ccc(F)cc3S(=O)(=O)N2CCc2ccccc2)c2ccccc2n1CC(=O)O` (stereo not drawn) [Example 64, [3-(6-Fluoro-1,1-dioxo-2-phenethyl-2,3-dihydro-1H-1λ^6-benzo[d]isothiazol-3-yl)-2-methyl-indol-1-yl]-acetic acid], the inhibitory constant (Ki) is < 100 nM.

For `COc1cccc(CN2N=C(c3c(C)n(CC(=O)O)c4ccc(F)cc34)c3ccccc3S2(=O)=O)c1` [Example 79, {3-[2-(3-Methoxy-benzyl)-1,1-dioxo-1,2-dihydro-1λ^6-benzo[e][1,2,3]thiadiazin-4-yl]-5-fluoro-2-methyl-indol-1-yl}-acetic acid], the Ki was < 1000 nM.

`CN1C(=O)c2ccccc2C1c1cn(CC(=O)O)c2ccccc12` (stereo not drawn) [Example 20, [3-(2-Methyl-3-oxo-2,3-dihydro-1H-isoindol-1-yl)-indol-1-yl]-acetic acid]: the Ki is > 10000 nM.

As to `Cc1c(C2=NN(Cc3ccc(Cl)cc3)S(=O)(=O)c3ccccc32)c2cc(F)ccc2n1CC(=O)O` [Example 78, {3-[2-(4-Chloro-benzyl)-1,1-dioxo-1,2-dihydro-1λ^6-benzo[e][1,2,3]thiadiazin-4-yl]-5-fluoro-2-methyl-indol-1-yl}-acetic acid], the inhibition constant Ki was < 1000 nM.

With `COc1ccc2c(c1)c(C1c3ccccc3S(=O)(=O)N1Cc1ccc(C#N)cc1)cn2CC(=O)O` (stereo not drawn) [Example 57, {3-[2-(4-Cyano-benzyl)-1,1-dioxo-2,3-dihydro-1H-1λ^6-benzo[d]isothiazol-3-yl]-5-methoxy-indol-1-yl}-acetic acid], the inhibition constant (Ki) is < 10000 nM.

For the molecule `Cc1c(C2=NN(C(C)c3ccccc3)S(=O)(=O)c3ccccc32)c2cc(F)ccc2n1CC(=O)O` (stereo not drawn) [Example 86, {3-[2-(1-phenyl-ethyl)-1,1-dioxo-1,2-dihydro-1λ^6-benzo[e][1,2,3]thiadiazin-4-yl]-5-fluoro-2-methyl-indol-1-yl}-acetic acid], the Ki was < 100 nM.

As for `Cc1c(C2=NN(CCOc3ccc(Cl)cc3)S(=O)(=O)c3ccccc32)c2cc(F)ccc2n1CC(=O)O` [Example 89, (3-{2-[2-(4-Chloro-phenoxy)-ethyl]-1,1-dioxo-1,2-dihydro-1λ^6-benzo[e][1,2,3]thiadiazin-4-yl}-5-fluoro-2-methyl-indol-1-yl)-acetic acid], the Ki was < 1000 nM.

With `Cc1c(C2=NN(C3CCCCC3)S(=O)(=O)c3ccccc32)c2cc(F)ccc2n1CC(=O)O` [Example 94, [3-(2-Cyclohexyl-1,1-dioxo-1,2-dihydro-1λ^6-benzo[e][1,2,3]thiadiazin-4-yl)-5-fluoro-2-methyl-indol-1-yl]-acetic acid], the Ki was < 100 nM.

On to `COc1ccc2c(c1)c(C1c3ccccc3S(=O)(=O)N1C(C)Cc1ccccc1)cn2CC(=O)O` (stereo not drawn) [Example 56, {5-Methoxy-3-[2-(1-methyl-2-phenyl-ethyl)-1,1-dioxo-2,3-dihydro-1H-1λ^6-benzo[d]isothiazol-3-yl]-indol-1-yl}-acetic acid], for which the inhibitory constant (Ki) is < 10000 nM.

On to `Cc1c(C2=NN(Cc3ccc(OC(F)(F)F)cc3)S(=O)(=O)c3ccccc32)c2cc(F)ccc2n1CC(=O)O` [Example 84, {3-[2-(4-Trifluoromethoxy-benzyl)-1,1-dioxo-1,2-dihydro-1λ^6-benzo[e][1,2,3]thiadiazin-4-yl]-5-fluoro-2-methyl-indol-1-yl}-acetic acid], for which the inhibition constant Ki is < 1000 nM.

For the molecule `Cc1c(C2=NN(CCc3ccccc3)S(=O)(=O)c3ccccc32)c2cc(F)ccc2n1CC(=O)O` [Example 87, {3-[2-phenethyl-1,1-dioxo-1,2-dihydro-1λ^6-benzo[e][1,2,3]thiadiazin-4-yl]-5-fluoro-2-methyl-indol-1-yl}-acetic acid], the Ki is < 1000 nM.

On to `Cc1c(C2c3ccccc3S(=O)(=O)N2CCC(C)C)c2ccccc2n1CC(=O)O` (stereo not drawn) [Example 44, {2-Methyl-3-[2-(3-methyl-butyl)-1,1-dioxo-2,3-dihydro-1H-1λ^6-benzo[d]isothiazol-3-yl]-indol-1-yl}-acetic acid], for which the Ki was < 1000 nM.

As for `Cc1ccc2c(c1)c(C1c3ccccc3S(=O)(=O)N1Cc1ccc(F)cc1)cn2CC(=O)O` (stereo not drawn) [Example 49, {3-[2-(4-Fluoro-benzyl)-1,1-dioxo-2,3-dihydro-1H—1λ^6-benzo[d]isothiazol-3-yl]-5-methyl-indol-1-yl}-acetic acid], the inhibitory constant (Ki) is < 1000 nM.

For the molecule `Cc1noc(C)c1CN1C(c2cn(CC(=O)O)c3ccccc23)c2ccccc2S1(=O)=O` (stereo not drawn) [Example 35, {3-[2-(3,5-Dimethyl-isoxazol-4-ylmethyl)-1,1-dioxo-2,3-dihydro-1H-1λ^6benzo[d]isothiazol-3-yl]-indol-1-yl}-acetic acid], the Ki is < 100 nM.

Regarding `Cc1c(C2(C)c3ccccc3S(=O)(=O)N2Cc2cccc(F)c2)c2ccccc2n1CC(=O)O` (stereo not drawn) [Example 66, {3-[2-(3-Fluoro-benzyl)-3-methyl-1,1-dioxo-2,3-dihydro-1H-1λ^6-benzo[d]isothiazol-3-yl]-2-methyl-indol-1-yl}-acetic acid], the inhibition constant Ki is < 1000 nM.

For the molecule `Cc1c(C2c3ccccc3S(=O)(=O)N2CC2COc3ccccc3O2)c2ccccc2n1CC(=O)O` (stereo not drawn) [Example 41, {3-[2-(2,3-Dihydro-benzo[1,4]dioxin-2-ylmethyl)-1,1-dioxo-2,3-dihydro-1H-1λ^6-benzo[d]isothiazol-3-yl]-2-methyl-indol-1-yl}-acetic acid], the inhibition constant Ki was < 1000 nM.

Turning to `Cc1c(C2c3ccccc3S(=O)(=O)N2CCOc2ccc(Cl)cc2)c2ccccc2n1CC(=O)O` (stereo not drawn) [Example 39, (3-{2-[2-(4-Chloro-phenoxy)-ethyl]-1,1-dioxo-2,3-dihydro-1H-1λ^6-benzo[d]isothiazol-3-yl}-2-methyl-indol-1-yl)-acetic acid], the inhibition constant (Ki) was < 100 nM.

Take `O=C(O)Cn1cc(C2c3ccccc3S(=O)(=O)N2Cc2csc(-c3ccc(Cl)cc3)n2)c2ccccc21` (stereo not drawn) [Example 34, (3-{2-[2-(4-Chloro-phenyl)-thiazol-4-ylmethyl]-1,1-dioxo-2,3-dihydro-1H-1λ^6-benzo[d]isothiazol-3-yl}-indol-1-yl)-acetic acid]: the inhibition constant (Ki) was < 1000 nM.
